Experimental findings from patent publication EP4714953A1, “MELANOCORTIN 2-TYPE RECEPTOR ANTAGONIST” (Scohia Pharma, Inc., priority 2023, dated 2024) are described below.

Structures can show the parent of a compound that is named as a salt.

Usually inhibition stands for the change of the read-out against control, counted positive when it falls.

For one test, the target named is T1, human MC2R (Homo sapiens, UniProt Q01718).
T1 construct: host or cells: GeneBLAzer MC2R-CRE-bla CHO-K1 cells
T1 sequence (Q01718 whole entry): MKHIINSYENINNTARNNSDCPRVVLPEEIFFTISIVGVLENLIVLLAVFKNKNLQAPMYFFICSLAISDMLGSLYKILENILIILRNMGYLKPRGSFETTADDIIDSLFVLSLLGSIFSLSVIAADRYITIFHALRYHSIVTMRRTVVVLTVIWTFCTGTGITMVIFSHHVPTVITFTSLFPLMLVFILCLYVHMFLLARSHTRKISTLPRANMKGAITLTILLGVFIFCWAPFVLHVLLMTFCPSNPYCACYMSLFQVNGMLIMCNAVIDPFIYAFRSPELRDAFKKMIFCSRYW
T1 sequence (Q8TCY5 whole entry partner): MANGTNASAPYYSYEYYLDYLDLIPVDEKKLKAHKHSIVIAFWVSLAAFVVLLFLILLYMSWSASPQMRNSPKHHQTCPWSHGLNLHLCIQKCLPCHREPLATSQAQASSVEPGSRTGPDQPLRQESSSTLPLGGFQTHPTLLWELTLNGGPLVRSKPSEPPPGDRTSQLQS
Kind of test: Measurement of human MC2R inhibitory activity using intracellular cAMP concentration as an indicator. The class given is cell-based. As to conditions: test compound at 1 µM; GeneBLAzer MC2R-CRE-bla CHO-K1 cells; ACTH (Human 1-24) final concentration 3 pM; intracellular cAMP by HTRF. The procedure: Experimental Example 1: Measurement of human MC2R inhibitory activity using intracellular cAMP concentration as an indicator
GeneBLAzer MC2R-CRE-bla CHO-K1 cells (Thermo Fisher Scientific) that had been cryopreserved in advance were thawed and suspended in a medium [Dulbecco's Modified Eagle Medium (Thermo Fisher Scientific) containing fetal bovine serum (10% (v/v), HyClone Laboratories), Non-Essential Amino Acids Solution (1/100 (w/w), Thermo Fisher Scientific), HEPES (25 mM, Thermo Fisher Scientific), Penicillin/Streptomycin (1/100 (w/w), Fujifilm Wako)]. After centrifuging the cell suspension, the supernatant was removed, the cells were suspended in D-PBS(-) (Fujifilm Wako), and the supernatant was removed again after centrifugation. The cells were resuspended in an assay buffer [Hank's Balanced Salt Solution (Thermo Fisher Scientific) containing HEPES pH 7.5 (10 mM, Thermo Fisher Scientific), fatty acid-free bovine serum albumin (0.01% (w/v), Sigma), IBMX (500 µM, Fujifilm Wako)] and added to a 384-well white plate (Greiner) at 1,500 cells/well. Then, the test compound prepared using the assay buffer was added, and after standing for 20 min, an assay buffer containing ACTH (Human 1-24) (Peptide Institute) was added (ACTH final concentration, 3 pM). After standing at room temperature for 30 min, the intracellular cAMP level was measured using cAMP Gs HiRange kit HTRF (PerkinElmer). The inhibition rate (%) of the compound against MC2R was calculated using the following formula. Inhibition rate (%) = […] [formula] • A: cAMP concentration calculated from wells containing 3 pM ACTH (1-24) • B: cAMP concentration calculated from wells without addition of 3 pM ACTH (1-24) • C: cAMP concentration calculated from wells containing 3 pM ACTH (1-24) and test compound at concentration determined in advance
(In general: In TR-FRET formats the signal depends on donor and acceptor labels being close together.)
As for `CCOc1ncccc1-c1ccc(N2CCN3C(=O)N(c4ccc(Cl)cc4C(F)(F)F)C[C@@H]3C2)c(C(=O)NCCC2CCNCC2)n1` [Example 25, 3-[(8aS)-2-[4-chloro-2-(trifluoromethyl)phenyl]-3-oxo-5,6,8,8a-tetrahydro-1H-imidazo[1,5-a]pyrazin-7-yl]-6-(2-ethoxypyridin-3-yl)-N-(2-piperidin-4-ylethyl)pyridine-2-carboxamide 2 hydrochloride], the “MC2R inhibition rate (% of inhibition)” value is 99%.

The test is the same for the next values; noted with them: test compound at 1 µM; GeneBLAzer MC2R-CRE-bla CHO-K1 cells; ACTH (Human 1-24) final concentration 3 pM; intracellular cAMP by HTRF; read-out: MC2R inhibition rate (% of inhibition).
In the case of `CCOc1ncccc1-c1ccc(N2C[C@H]3CN(c4ccc(Cl)cc4C(F)(F)F)C(=O)N3C[C@H]2CC)c(C(=O)NC[C@@H]2CCN2C(=O)OC(C)(C)C)n1` [Example 45, tert-butyl (2S)-2-[[[3-[(6R,8aS)-2-[4-chloro-2-(trifluoromethyl)phenyl]-6-ethyl-3-oxo-5,6,8,8a-tetrahydro-1H-imidazo[1,5-a]pyrazin-7-yl]-6-(2-ethoxypyridin-3-yl)pyridine-2-carbonyl]amino]methyl]azetidine-1-carboxylate], the inhibition at 1 µM came to 100%. The same measure, in the same setting: in the case of `CCOc1ncccc1-c1ccc(N2C[C@H]3CN(c4ccc(Cl)cc4C(F)(F)F)C(=O)N3C[C@H]2CC)c(C(=O)NC[C@H]2CCN2C(=O)OC(C)(C)C)n1` [Example 43, tert-butyl (2R)-2-[[[3-[(6R,8aS)-2-[4-chloro-2-(trifluoromethyl)phenyl]-6-ethyl-3-oxo-5,6,8,8a-tetrahydro-1H-imidazo[1,5-a]pyrazin-7-yl]-6-(2-ethoxypyridin-3-yl)pyridine-2-carbonyl]amino]methyl]azetidine-1-carboxylate] it was 100%; in that of `CCOc1ncccc1-c1ccc(N2CCN3C(=O)N(c4ccc(Cl)cc4C(F)(F)F)CC3C2)c(C=O)n1` (centres unmarked) [Example 1, 3-[2-[4-chloro-2-(trifluoromethyl)phenyl]-3-oxo-5,6,8,8a-tetrahydro-1H-imidazo[1,5-a]pyrazin-7-yl]-6-(2-ethoxypyridin-3-yl)pyridine-2-carbaldehyde], 100%; in that of `CCOc1ccccc1-c1ccc(N2C[C@H]3CN(c4ccc(Cl)cc4C(F)(F)F)C(=O)N3C[C@H]2C)c(C(=O)N[C@@H]2CC(=O)N(C)C2)n1` [Example 63, 3-[(6R,8aS)-2-[4-chloro-2-(trifluoromethyl)phenyl]-6-methyl-3-oxo-5,6,8,8a-tetrahydro-1H-imidazo[1,5-a]pyrazin-7-yl]-6-(2-ethoxyphenyl)-N-[(3R)-1-methyl-5-oxopyrrolidin-3-yl]pyridine-2-carboxamide], 100%.

`CCOc1ncccc1-c1ccc(N2C[C@H]3CN(c4ccc(Cl)cc4C(F)(F)F)C(=O)N3C[C@H]2CC)c(C(=O)NC2CC(=O)N(C)C2)n1` (stereo partly drawn) [Example 42, 3-[(6R,8aS)-2-[4-chloro-2-(trifluoromethyl)phenyl]-6-ethyl-3-oxo-5,6,8,8a-tetrahydro-1H-imidazo[1,5-a]pyrazin-7-yl]-6-(2-ethoxypyridin-3-yl)-N-(1-methyl-5-oxopyrrolidin-3-yl)pyridine-2-carboxamide]: the inhibition at 1 µM was found to be 100%. Still for that read-out and setting: with `CCOc1ncccc1-c1ccc(N2CCN3C(=O)N(c4ccc(Cl)cc4C(F)(F)F)CC3C2)c(C(=O)NCCN(C)C)n1` (centres unmarked) [Example 4, 3-[2-[4-chloro-2-(trifluoromethyl)phenyl]-3-oxo-5,6,8,8a-tetrahydro-1H-imidazo[1,5-a]pyrazin-7-yl]-N-[2-(dimethylamino)ethyl]-6-(2-ethoxypyridin-3-yl)pyridine-2-carboxamide] the figure was 100%; with `CCOc1ncccc1-c1ccc(N2C[C@H]3CN(c4ccc(Cl)cc4C(F)(F)F)C(=O)N3C[C@H]2CC)c(C(=O)NCC2(O)CC2)n1` [Example 32, 3-[(6R,8aS)-2-[4-chloro-2-(trifluoromethyl)phenyl]-6-ethyl-3-oxo-5,6,8,8a-tetrahydro-1H-imidazo[1,5-a]pyrazin-7-yl]-6-(2-ethoxypyridin-3-yl)-N-[(1-hydroxycyclopropyl)methyl]pyridine-2-carboxamide], 100%. Take `CCOc1ccccc1-c1ccc(N2C[C@H]3CN(c4ccc(Cl)cc4C(F)(F)F)C(=O)N3C[C@H]2CC)c(C(=O)N[C@@H]2CC(=O)N(C)C2)n1` [Example 67, 3-[(6R,8aS)-2-[4-chloro-2-(trifluoromethyl)phenyl]-6-ethyl-3-oxo-5,6,8,8a-tetrahydro-1H-imidazo[1,5-a]pyrazin-7-yl]-6-(2-ethoxyphenyl)-N-[(3R)-1-methyl-5-oxopyrrolidin-3-yl]pyridine-2-carboxamide]: the inhibition at 1 µM is 94%.

`CC[C@@H]1CN2C(=O)N(c3ccc(Cl)cc3C(F)(F)F)C[C@@H]2CN1c1ccc(-c2ccccc2OC)nc1C(=O)N[C@@H]1CC(=O)N(C)C1` [Example 68, 3-[(6R,8aS)-2-[4-chloro-2-(trifluoromethyl)phenyl]-6-ethyl-3-oxo-5,6,8,8a-tetrahydro-1H-imidazo[1,5-a]pyrazin-7-yl]-6-(2-methoxyphenyl)-N-[(3R)-1-methyl-5-oxopyrrolidin-3-yl]pyridine-2-carboxamide]: the inhibition at 1 µM is 96%. On the same count and under the same terms, in the case of `CCOc1ccccc1-c1ccc(N2C[C@H]3CN(C4(C(F)(F)F)CCC4)C(=O)N3C[C@H]2CC)c(C(=O)N[C@@H]2CC(=O)N(C)C2)n1` [Example 66, 3-[(6R,8aS)-6-ethyl-3-oxo-2-[1-(trifluoromethyl)cyclobutyl]-5,6,8,8a-tetrahydro-1H-imidazo[1,5-a]pyrazin-7-yl]-6-(2-ethoxyphenyl)-N-[(3R)-1-methyl-5-oxopyrrolidin-3-yl]pyridine-2-carboxamide] it was 97%; in that of `CCOc1ncccc1-c1ccc(N2C[C@H]3CN(c4ccc(F)cc4C#N)C(=O)N3C[C@H]2CC)c(C(=O)N[C@H]2CNC(=O)C2)n1` [Example 55, 3-[(6R,8aS)-2-(2-cyano-4-fluorophenyl)-6-ethyl-3-oxo-5,6,8,8a-tetrahydro-1H-imidazo[1,5-a]pyrazin-7-yl]-6-(2-ethoxypyridin-3-yl)-N-[(3R)-5-oxopyrrolidin-3-yl]pyridine-2-carboxamide], 100%. Still for that read-out and setting: with `CCOc1ncccc1-c1ccc(N2CCN3C(=O)N(c4ccc(Cl)cc4C(F)(F)F)C[C@H]3C2)c(C(=O)NCCN(C)C)n1` [Example 8, 3-[(8aR)-2-[4-chloro-2-(trifluoromethyl)phenyl]-3-oxo-5,6,8,8a-tetrahydro-1H-imidazo[1,5-a]pyrazin-7-yl]-N-[2-(dimethylamino)ethyl]-6-(2-ethoxypyridin-3-yl)pyridine-2-carboxamide] the figure was 90%; with `CCOc1ncccc1-c1ccc(N2CCN3C(=O)N(c4ccc(Cl)cc4C(F)(F)F)C[C@@H]3C2)c(C(=O)N[C@@H]2CCN(C)C2)n1` [Example 23, 3-[(8aS)-2-[4-chloro-2-(trifluoromethyl)phenyl]-3-oxo-5,6,8,8a-tetrahydro-1H-imidazo[1,5-a]pyrazin-7-yl]-6-(2-ethoxypyridin-3-yl)-N-[(3R)-1-methylpyrrolidin-3-yl]pyridine-2-carboxamide], 100%; with `CCOc1ncccc1-c1ccc(N2C[C@H]3CN(c4ccc(F)cc4C(F)(F)F)C(=O)N3C[C@H]2CC)c(C(=O)N[C@@H]2CC(=O)N(C)C2)n1` [Example 52, 3-[(6R,8aS)-6-ethyl-2-[4-fluoro-2-(trifluoromethyl)phenyl]-3-oxo-5,6,8,8a-tetrahydro-1H-imidazo[1,5-a]pyrazin-7-yl]-6-(2-ethoxypyridin-3-yl)-N-[(3R)-1-methyl-5-oxopyrrolidin-3-yl]pyridine-2-carboxamide], 100%. The same measure, in the same setting: in the case of `CCOc1ncccc1-c1ccc(N2C[C@H]3CN(c4ccc(Cl)cc4C(F)(F)F)C(=O)N3C[C@H]2C)c(C(=O)N[C@@H]2CC(=O)N(C)C2)n1` [Example 60, 3-[(6R,8aS)-2-[4-chloro-2-(trifluoromethyl)phenyl]-6-methyl-3-oxo-5,6,8,8a-tetrahydro-1H-imidazo[1,5-a]pyrazin-7-yl]-6-(2-ethoxy-3-pyridinyl)-N-[(3R)-1-methyl-5-oxopyrrolidin-3-yl]pyridine-2-carboxamide] it was 97%. For `CCOc1ncccc1-c1ccc(N2C[C@H]3CN(c4ccc(Cl)cc4C(F)(F)F)C(=O)N3C[C@H]2CC)c(C(=O)NCCN(C)C)n1` [Example 26, 3-[(6R,8aS)-2-[4-chloro-2-(trifluoromethyl)phenyl]-6-ethyl-3-oxo-5,6,8,8a-tetrahydro-1H-imidazo[1,5-a]pyrazin-7-yl]-N-[2-(dimethylamino)ethyl]-6-(2-ethoxypyridin-3-yl)pyridine-2-carboxamide], the inhibition at 1 µM was determined as 100%.
